Results published in patent US20140113306A1, “DIAGNOSTIC AND SCREENING METHODS FOR INFLAMMATION” (Rutgers, The State University of New Jersey, priority 2012, published 2014).

Assays:
human leukocytes = test: Ex vivo whole blood pretreated with inhibitors, then endotoxin; leukocyte Western blotting and ATP analyses; format: cell-based; settings: for autophagy in endotoxin-treated leukocytes: FIG. 7B: LY 10 μM 30 min, RAPA 100 nM 2 hours, YC-1 30 μM 30 min, ACF 5 μM 2 hours, then endotoxin 10 ng/ml 2 hours; for endotoxin-induced AMPKα degradation (change in AMPKα expression) / endotoxin-induced autophagy (LC3-I/LC3-II) / endotoxin-induced decline in ATP levels / endotoxin-induced HIF-1α expression: whole blood treated 2 hours with inhibitor prior to endotoxin 10 ng/ml
Procedure: (A) Blood samples were treated with endotoxin (LPS; […]) for the indicated time. (B-D) Blood samples were untreated (control), treated for 2 hours with DMSO (vehicle), or the specified inhibitors prior to the addition of endotoxin (10 ng/ml). The inhibitors tested included: LY294002 (LY), Rapamycin (RAPA), YC-1, acriflavine (ACF), metformin (Met) and SRT1720 (SRT). Leukocytes were isolated at the indicated time post-endotoxin treatment and lysed. Lysates were subjected to Western blotting analyses, and where shown, ATP analyses. Details are provided in the supplement. (E) Proposed model for endotoxin-induced metabolic derangement in human leukocytes.
(§1) FIG. 7. provides the Toll-like receptor 4 signaling pathway in human leukocytes and the antagonistic effect of insulin. (A) Blood samples were treated with endotoxin (10 ng/ml) for the indicated time. (B) Blood samples were untreated (UN), or treated with DMSO (vehicle; 0.05%; 2 hours), LY294002 (LY; 10 μM; 30 min), rapamycin (RAPA; 100 nM, 2 ‘hours), YC-1 (30 μM; 30 min), or acriflavine (ACF; 5 μM; 2 hours). The samples shown in lanes 3-8 were subsequently treated with endotoxin (10 ng/ml) for 2 hours. (C) Blood samples were untreated (UN; lane 1), treated with endotoxin (10 ng/ml; lane 2) for 2 hours, or with insulin (1 unit/ml) for 2 hours (lane 3) or 1 hour (lane 4). The samples shown in lanes 5-9 were treated with endotoxin (10 ng/ml) plus insulin at the indicated concentration (1-0.05 unit/ml) for 2 hours, (D) Blood samples were treated with insulin (0.1 unit/ml) plus endotoxin (10ng/ml) for the indicated time, or with endotoxin alone (Endo, 10 ng/ml) for 2 hours. Leukocytes were isolated, lysed, and analyzed as described in FIG. 5. (E) Model describing the pattern of signaling indicators detected in leukocytes treated with endotoxin as compared to insulin.
To examine the signaling events linking endotoxin induced responses ex vivo with the altered metabolic/bioenergetic profile, the inventors examined the effect of pharmacological inhibitors implicated in the regulation of HIF-1α expression in other model systems. […] Furthermore, they indicate that distinct PI-3K effectors regulate HIF-1α stabilization and AMPKα degradation.
To examine the effect of metformin on human leukocytes bioenergetics, whole blood samples were pretreated with metformin ex vivo prior to the addition of endotoxin.
(§2) Endotoxin (lipopolysaccharide from Escherichia coli 0111B4, Sigma, 10 ng/ml). Insulin (Humalog Mix 50/50; Lilly) was used at the indicated concentrations (0.05-1 unit/ml), Polymyxin (Invivogen, 50 μg/ml), CLI-095 (Invivogen; 3 μM), LY294002 (Cayman Chemical; 10 μM), Rapamycin (Tocris Bioscience; 100 nM), YC-1 (Sigma; 30 μM), Acriflavine (ACF; Sigma; 5 μM)
(§3) Human Subjects were enrolled in the study following the Institutional Review Board of Rutgers Robert Wood Johnson Medical School approval. Written informed consent was obtained from all participates prior to inclusion in the study. Blood was drawn into EDTA-containing tubes. To isolate leukocytes, lysis buffer (bicarbonate-buffered ammonium chloride solution, 0.826% NH4Cl, 0.1% KHCO3, 0.0037% Na4EDTA in H2O) was added at a ratio of 20:1 (lysis buffer/blood). Once the erythrocytes lysed, the samples were centrifuged for […] at 400×g. The leukocyte pellet was washed once with phosphate-buffered saline. The pellet was suspended in RIPA buffer (1% Triton X-100, 1% deoxycholic acid, 10 mM Tris-HCl, pH 7.2, 158 mM NaCl, 0.1% SDS, and 1 mM PMSF and complete protease inhibitor mixture (Roche Applied Science)). Lysates containing equal protein amounts were analyzed by immunoblotting. Where indicated, endotoxin, insulin, and/or inhibitors were added to the whole blood samples prior to leukocyte isolation.

leukocytes = test: Insulin treatment of whole blood from non-diabetic individuals; leukocyte immunoblotting; format: cell-based, human; settings: insulin alone 0.1 unit/ml
Procedure: (§4) (A) Blood samples from a non-diabetic (N) and a type 2 diabetic patient were separated into plasma and cellular fractions (cellular F.) and mutually exchanged. Thus, plasma derived from the non-diabetic donor was added to the diabetic patient cellular fraction, and vice versa. Leukocytes were isolated at indicated time post-exchange, lysed and analyzed by immunoblotting. (B) Blood samples from a non-diabetic donor were treated with insulin (0.1 unit/ml) for the indicated time (lanes 1-7) or with endotoxin for 2 hours (lane 8) (C) Blood samples from a non-diabetic donor were untreated (UN) or treated for 1 hour with polymyxin (50 μg/ml) or CL-095 (30 μM). Endotoxin (Endo; 10 ng/ml) was next added to specified samples (lanes 2-4). Leukocytes were isolated 2 hours tater. (D and E) Blood samples obtained from a non-diabetic donor and two type 2 diabetic patients (identified as diabetic 1 and diabetic 2) were all separated into plasma and cellular fraction. The cellular fractions were either untreated (lane 4) or treated with polymyxin (lanes 5 and 8) or CLI-095 (lanes 6 and 9) for 1 hour. The samples shown in lanes 1-3 were not subjected to plasma exchange. (D) Plasma derived from diabetic 1 (lanes 4-6) or diabetic 2 (lanes 7-9) was added to the non-diabetic donor cellular fractions and (E) vice versa. The leukocytes were isolated at 4 hours post-exchange. Samples were analyzed as in (A).
as §2, §3
To establish the nature of the circulating factor enriched, in plasma from diabetics, multiple candidates were considered. As leukocytes express insulin receptor and circulating insulin is high in many type 2 and treated type 1 diabetic patients, insulin was chosen as the primary candidate. However, the insulin-signaling pathway in leukocytes is poorly characterized.

[1] = tested on: endotoxin-treated leukocytes; test: Insulin plus endotoxin in the in vitro whole blood system; leukocyte immunoblotting; format: cell-based, human
Procedure: as §1, §2, §3
Following food intake, especially if high in fat, human leukocytes might be exposed to increases in both insulin and endotoxin. Therefore, the combined effects of insulin and endotoxin on leukocytes were examined using the in vitro whole blood system. […] Insulin at a dose as low as 0.1 unit/ml also delayed onset of pAkt and pS6K1 in endotoxin-treated leukocytes (FIG. 7D).

TLR4 = test: Endotoxin/TLR4 signaling block in non-diabetic donor blood challenged with endotoxin in vitro; format: cell-based, human; settings: 1 hour pretreatment, polymyxin 50 μg/ml or CLI-095; endotoxin 10 ng/ml 2 hours
Procedure: as §4, §2, §3
To determine whether endotoxin is the component in diabetic patient plasma that regulates leukocyte activation, endotoxin/TLR4 signaling was blocked using two pharmacologic inhibitors, polymyxin and. CLI-095. Polymyxin is a natural polypeptide antibiotic that binds the lipid A moiety of endotoxin, and consequently interferes with endotoxin binding to TLR4. CLI-095, also known as TAK-242, is a specific TLR4 signaling inhibitor. As leukocytes express multiple Toll-like receptors (TLR) including TLR4, which binds endotoxin, TLR4 functions in the regulation of Akt/S6K1/mTOR axis is of interest.

[2] = tested on: non-diabetic donor leukocytes; test: Plasma exchange: diabetic patient plasma added to non-diabetic donor cellular fraction; format: cell-based, human; settings: cellular fraction treated 1 hour before exchange; leukocytes isolated 4 hours post-exchange
Procedure: (A) Blood samples from a non-diabetic (N) and a type 2 diabetic patient were separated into plasma and cellular fractions (cellular F.) and mutually exchanged. Thus, plasma derived from the non-diabetic donor was added to the diabetic patient cellular fraction, and vice versa. Leukocytes were isolated at indicated time post-exchange, lysed and analyzed by immunoblotting. (B) Blood samples from a non-diabetic donor were treated with insulin (0.1 unit/ml) for the indicated time (lanes 1-7) or with endotoxin for 2 hours (lane 8) (C) Blood samples from a non-diabetic donor were untreated (UN) or treated for 1 hour with polymyxin (50 μg/ml) or CL-095 (30 μM). Endotoxin (Endo; 10 ng/ml) was next added to specified samples (lanes 2-4). Leukocytes were isolated 2 hours tater. […] Samples were analyzed as in (A).
For the plasma mixing experiments, the blood samples were sedimented at unit gravity for 1.5 hours. […] The leukocytes were subsequently isolated, lysed, and analyzed by immunoblotting.
Next, non-diabetic donor leukocytes and leukocytes from two type 2 diabetic patients were either untreated, or treated with either polymyxin or CLI-095 prior to the plasma/leukocytes exchange. As shown above, pS6K1, pIRS-1, and HIF-1α expression were all detected in non-diabetic donor leukocytes following exposure to diabetic patients plasma. […]

liver = settings: pretreatment, endotoxin challenge; cited from earlier work
[3] = diabetics treated with metformin; cited from earlier work
[4] = insulin 0.1 unit/ml plus endotoxin 10 ng/ml
[5] = insulin higher than 0.1 unit/ml plus endotoxin 10 ng/ml, 2 hours

Compound: OCc1ccc(-c2nn(Cc3ccccc3)c3ccccc23)o1 [YC-1, 3-(5′-hydroxymethyl-2′-furyl)-1-benzylindazole]
- autophagy in endotoxin-treated leukocytes (human leukocytes): prevented
- endotoxin-induced AMPKα degradation (change in AMPKα expression) (human leukocytes): did not prevent
- endotoxin-induced autophagy (LC3-I/LC3-II) (human leukocytes): inhibited
- endotoxin-induced decline in ATP levels (human leukocytes): inhibited

Compound: insulin: Insulin (Humalog Mix 50/50; Lilly)
- Raptor dephosphorylation (leukocytes): failed to induce
- increase in HIF-1α expression (leukocytes): failed to induce
- increase in autophagy (leukocytes): failed to induce
- pAkt (leukocytes): triggered increases
- pIRS-1 (leukocytes): failed to induce
- pS6K1 (leukocytes): triggered increases
- signaling pattern of leukocytes ([1]; endotoxin plus insulin at <0.1 unit/ml): the pattern observed in leukocytes treated with endotoxin alone
- onset of pAkt [1, 4]: delayed onset
- onset of pS6K1 [1, 4]: delayed onset
- HIF-1α expression [1, 5]: suppressed
- TLR4 expression [1, 5]: suppressed
- autophagy [1, 5]: suppressed
- dephosphorylation of Raptor [1, 5]: suppressed
- pIRS-1 [1, 5]: suppressed

Compound: CCOC(=O)C1=CCCC[C@H]1S(=O)(=O)Nc1ccc(F)cc1Cl [CLI-095]
- HIF-1α expression upon challenge with endotoxin (TLR4): prevented
- pIRS-1 upon challenge with endotoxin (TLR4): prevented
- pS6K1 upon challenge with endotoxin (TLR4): prevented
- pS6K1, pIRS-1, and HIF-1α expression following exposure to diabetic patients plasma [2]: inhibited

Compound: Oc1ccc(C=Cc2cc(O)cc(O)c2)cc1 [Resveratrol, resveratrol]
- HIF-1α expression in the liver (liver): prevents
- Sirt1 degradation in the liver (liver): prevents
- autophagy in the liver (liver): prevents

Compound: polymyxin
- HIF-1α expression upon challenge with endotoxin (TLR4): prevented
- pIRS-1 upon challenge with endotoxin (TLR4): prevented
- pS6K1 upon challenge with endotoxin (TLR4): prevented
- pS6K1, pIRS-1, and HIF-1α expression following exposure to diabetic patients plasma [2]: inhibited

Compound: CN(C)C(=N)N=C(N)N [metformin]
- AMPKα phosphorylation (human leukocytes; metformin alone, no endotoxin): induced
- AMPKα phosphorylation (Thr 172) (human leukocytes; metformin pretreatment combined with endotoxin): induced
- endotoxin-induced AMPKα degradation (change in AMPKα expression) (human leukocytes): prevents
- endotoxin-induced HIF-1α expression (human leukocytes): prevents
- endotoxin-induced AMPKα degradation (change in AMPKα expression) (human leukocytes; listed as Metformin): inhibited
- endotoxin-induced HIF-1α expression (human leukocytes; listed as Metformin): inhibited
- less cancer than diabetics treated with insulin [3]: 25-40%

Compound: acriflavine
- autophagy in endotoxin-treated leukocytes (human leukocytes): prevented
- endotoxin-induced AMPKα degradation (change in AMPKα expression) (human leukocytes): did not prevent
- endotoxin-induced autophagy (LC3-I/LC3-II) (human leukocytes): inhibited
- endotoxin-induced decline in ATP levels (human leukocytes): inhibited

Compound: O=C(Nc1ccccc1-c1cn2c(CN3CCNCC3)csc2n1)c1cnc2ccccc2n1 [SRT1720]
- endotoxin-induced AMPKα degradation (change in AMPKα expression) (human leukocytes): did not
- endotoxin-induced HIF-1α expression (human leukocytes): block
